In patent publication US12295970B2, “Imidazoquinoline compounds and prodrugs thereof” (UNIVERSITY OF KANSAS, priority 2019, dated 2025):
Entries after “also recorded” stand apart in the source; their conditions may differ.

Key:
[1] = Depot effect: ear inflammation test in healthy rabbits; format: in vivo, New Zealand White rabbits; conditions: s.c. into rabbit ear
Procedure: It was observed that a local injection of the R848-Toco/HA-Toco nano-emulsion forms a depot at the site of injection and releases the loaded agonist in a sustained fashion, producing prolonged and localized immune stimulation while minimizing systemic off-target effects. To test the localization effect, an ear inflammation test was conducted in healthy rabbits. R848-Toco/HA-Toco and unformulated R848 were injected subcutaneously into opposing rabbit ears of subjects, and local inflammation and systemic TNF-α responses were observed.
New Zealand White rabbits (3-4 kg) were anaesthetized using 5% isoflurane and injected subcutaneously with 2.5 mg of R848 in 250 μl of vehicle into the ipsilateral ear. R848-Toco/HA-Toco was formulated as described above, and the R848 parent compound was formulated in 0.5% polysorbate 80 (w/v) in water. For histopathology, punch biopsies were taken 24 hours post injection, fixed in formalin, and analyzed by a board-certified veterinary pathologist (Kansas State Veterinary Hospital, […], KS, USA). In separate animals, blood samples were taken pre-injection and at 0.5, 1, 2, 5, and 24 h post-injection time points from the contra-lateral ear (marginal vein, 22 ga). Whole blood was centrifuged at 1500×g for 5 min and the serum were collected for cytokine evaluation. All samples and controls were prepared, and serum cytokine levels were measured.

canine PBMCs = assay: In vitro cytokine secretion assay in canine PBMCs (Example 3); format: cell-based; conditions: 15 hours, ELISA
Source text: As a TLR7/8 agonist, R848 binds to endosomal TLR7 and 8 receptors located on antigen presenting cells (APCs). The activation of APCs produces pro-inflammatory cytokines including TNF-α, type I IFN and IL-12. These cytokines, together with stimulated APCs that take up tumor antigens, enhance the activation of anti-tumor Th-1 immune responses that involve both CD4^+ T helper cells and CD8^+ cytotoxic T cells.^16 To evaluate the Th-1 associated cytokine production in vitro, isolated canine PBMCs were treated with R848, formulated or unformulated R848-Toco, and the secretion of TNF-α and IL-12 were measured by ELISA as markers of generalized inflammatory response. Canines were chosen as a model over mice because of the greater genetic similarity to humans and more similar immune systems.^46 Peripheral blood from healthy canine donors of 7-10 years age (similar to the age of typical canines with cancer^14) was obtained with appropriate informed consent of the owner. Blood (8 mL per tube) was drawn via sterile venipuncture into a BD Vacutainer cell preparation tube containing sodium heparin (BD Biosciences). PBMCs were isolated within one hour following procurement by density gradient centrifugation according to the manufacturer protocol and resuspended to 3×10^6 cells/mL in sterile RPMI 1640 medium with L-glutamine (Gibco) supplemented with 100 IU/mL penicillin, 100 μg/mL streptomycin (Corning) and 10% (v/v) heat-inactivated Fetalgro (RMBIO). Corning 3917, 96-well tissue culture treated plates were seeded with the PBMC suspension (180 μL/well), 20 μL of the serially diluted R848 samples were added in triplicate and HA-Toco vehicle in duplicate to yield the desired concentrations in a 1% (v/v) DMSO cell suspension. […] Sample cytokine concentrations were determined by interpolation of a four-parameter logistic curve of the recombinant standards using GraphPad Prism 6. […] Cytokine secretion levels were measured by ELISA (Duoset, R&D Systems, Minneapolis, MN, USA) according to the manufacturer protocol.

## CCOCc1nc2c(N)nc3ccccc3c2n1CC(C)(C)O [Compound 2, resiquimod, reference compound]
[1]; 2.5 mg of R848 in 250 μl
  local response at the injection site: minimum change; also recorded: no local reaction
[1]; 0.5-24 h post-injection, n=4
  plasma TNF-α levels: significant elevation
Canine PBMCs
  IL-12 levels: highest
  secretion of TNF-α: strong secretion
